Source: ChEMBL document CHEMBL3739426, “Synthesis and biological evaluation of novel 2-isoxazoline fused cyclopentane derivatives as potential antimicrobial and anticancer agents” (Medchemcomm, 2015)
≈ marks a conversion by molar mass, not a printed value.

What was measured:
HT-29 = assay: Cytotoxicity against human HT-29 cells after 48 hrs by MTT assay; type: functional, cell-based; conditions: HT-29, 48 h
Candida albicans = assay: Antimicrobial activity against Candida albicans by cup plate diffusion method; type: functional
HeLa = assay: Cytotoxicity against human HeLa cells after 48 hrs by MTT assay; type: functional, cell-based
[1] = Cytotoxicity against human PC3 cells after 48 hrs by MTT assay; type: functional, cell-based; conditions: PC-3, 48 h
Pseudomonas sp. = assay: Antimicrobial activity against Pseudomonas sp. by cup plate diffusion method; type: functional
Priestia megaterium = assay: Antimicrobial activity against Bacillus megaterium by cup plate diffusion method; type: functional
A549 = assay: Cytotoxicity against human A549 cells after 48 hrs by MTT assay; type: functional, cell-based; conditions: A549, 48 h
Escherichia coli = assay: Antimicrobial activity against Escherichia coli by cup plate diffusion method; type: functional
Bacillus subtilis = assay: Antimicrobial activity against Bacillus subtilis by cup plate diffusion method; type: functional
MCF7 = assay: Cytotoxicity against human MCF7 cells after 48 hrs by MTT assay; type: functional, cell-based; conditions: MCF7, 48 h

Row | Compound | IC50 (HT-29) [µg/mL] | MIC (Candida albicans) [µg/mL] | IC50 (HeLa) [µg/mL] | IC50 [1] [µg/mL] | MIC (Pseudomonas sp.) [µg/mL] | MIC (Priestia megaterium) [µg/mL] | IC50 (A549) [µg/mL] | MIC (Escherichia coli) [µg/mL] | MIC (Bacillus subtilis) [µg/mL] | IC50 (MCF7) [µg/mL]
1 | COC(=O)[C@H]1C[C@@H](C(=O)OC)[C@H]2ON=C(c3ccc(Br)cc3)[C@H]21 | > 50 | > 100 | 27.4 (≈ 71.7 µM) | > 50 | > 100 | > 100 | > 50 | > 100 | > 100 | > 50
2 | COc1ccc(C2=NO[C@H]3[C@@H]2[C@@H](C(=O)O)C[C@H]3C(=O)O)cc1 | > 50 | > 100 | > 50 | > 50 | > 100 | > 100 | > 50 | > 100 | > 100 | > 50
3 | COc1cc([C@@H]2c3cc4c(cc3[C@@H](O[C@@H]3O[C@@H]5CO[C@@H](C)O[C@H]5[C@H](O)[C@H]3O)[C@H]3COC(=O)[C@H]23)OCO4)cc(OC)c1O [ETOPOSIDE] | 4.21 (≈ 7.15 µM) | – | 2.35 (≈ 3.99 µM) | 7.2 (≈ 12.2 µM) | – | – | 8.9 (≈ 15.1 µM) | – | – | 11.9 (≈ 20.3 µM)
4 | OC[C@@H]1C[C@H](CO)[C@@H]2C(c3ccc(F)cc3)=NO[C@H]12 | 17.8 (≈ 67.1 µM) | > 100 | > 50 | > 50 | > 100 | > 100 | 31.1 (≈ 117 µM) | > 100 | > 100 | > 50
5 | COC(=O)[C@H]1C[C@@H](C(=O)OC)[C@H]2ON=C(c3ccc(Cl)cc3)[C@H]21 | > 50 | > 100 | > 50 | > 50 | > 100 | > 100 | > 50 | > 100 | > 100 | > 50
6 | O=C(O)[C@H]1C[C@@H](C(=O)O)[C@H]2ON=C(c3ccc(Cl)cc3)[C@H]21 | > 50 | > 100 | 19 (≈ 61.3 µM) | > 50 | > 100 | 30 (≈ 96.9 µM) | 30 (≈ 96.9 µM) | > 100 | 60 (≈ 194 µM) | 28.5 (≈ 92 µM)
7 | CC1(C)S[C@@H]2[C@H](NC(=O)[C@H](N)c3ccccc3)C(=O)N2[C@H]1C(=O)O [AMPICILLIN] | – | – | – | – | – | 25 (≈ 71.5 µM) | – | – | 25 (≈ 71.5 µM) | –
8 | COC(=O)[C@H]1C[C@@H](C(=O)OC)[C@H]2ON=C(c3ccc4ccccc4c3)[C@H]21 | > 50 | > 100 | > 50 | > 50 | > 100 | > 100 | > 50 | > 100 | > 100 | > 50
9 | COC(=O)[C@H]1C[C@@H](C(=O)OC)[C@H]2ON=C(c3ccc(OC)cc3)[C@H]21 | 28.9 (≈ 86.7 µM) | > 100 | > 50 | > 50 | > 100 | > 100 | > 50 | > 100 | > 100 | > 50
10 | OC[C@@H]1C[C@H](CO)[C@@H]2C(c3ccc(Cl)cc3)=NO[C@H]12 | 22.9 (≈ 81.3 µM) | > 100 | > 50 | > 50 | > 100 | > 100 | > 50 | > 100 | > 100 | 14.7 (≈ 52.2 µM)
11 | GENTAMICIN | – | – | – | – | 8 | – | – | 2 | – | –
12 | COC(=O)[C@H]1C[C@@H](C(=O)OC)[C@H]2ON=C(c3ccccc3Cl)[C@H]21 | > 50 | > 100 | > 50 | > 50 | > 100 | > 100 | > 50 | > 100 | > 100 | > 50
13 | COC(=O)[C@H]1C[C@@H](C(=O)OC)[C@H]2ON=C(c3ccc(OC)c(OC)c3)[C@H]21 | > 50 | > 100 | > 50 | > 50 | > 100 | > 100 | > 50 | > 100 | > 100 | > 50
14 | Cc1ccc(C2=NO[C@H]3[C@@H]2[C@@H](C(=O)O)C[C@H]3C(=O)O)cc1 | > 50 | > 100 | > 50 | > 50 | > 100 | > 100 | > 50 | > 100 | > 100 | > 50
15 | O=C(O)[C@H]1C[C@@H](C(=O)O)[C@H]2ON=C(c3ccc(Br)cc3)[C@H]21 | > 50 | 8.7 (≈ 24.6 µM) | 45.6 (≈ 129 µM) | > 50 | 22 (≈ 62.1 µM) | 10.5 (≈ 29.6 µM) | > 50 | 2.2 (≈ 6.21 µM) | 10.5 (≈ 29.6 µM) | > 50
